Each molecule was assayed against T1, USP9X (Homo sapiens (Human), UniProt Q93008) (assay: Steady-state enzyme inhibition kinetics of USP9X). Details: not given.
Type: biochemical
Text: The data were fit to a general model for enzyme inhibition (FIG. 1E) so the values of the parameters determined from the assays specified the mode of inhibition. For example, in the case of α=1 and β=0, it corresponded to purely non-competitive inhibition. For α=infinity and p=1, it corresponded to purely competitive inhibition. The values of all the parameters, KS, KI, kcat, α, and β could be determined from the steady state measurements. The enzyme reactions were set up as described in the Inhibiting the catalytic activity of USP9X section. The concentration of the substrate ubqiutin-rhodamine110 was varied. The initial rates of the reactions were determined at several concentrations of the inhibitor Compound 2A. In order to determine the values of the parameters KS and kcat, the reaction rates in the absence of the inhibitor Compound 2A, the initial reaction rate data were fit to the standard Michaelis-Menten equation v=Vmax [S]/(Km+[S]). The values of α and β could then be determined by fitting the initial rate data of the enzyme reaction at various concentrations of Compound 2A to a modified version of the Michaelis-Menten equation, designating both Vmax and KS apparent to distinguish the apparent values of the parameters determined from these plots to the true values for these parameters determined from the steady state kinetics in the absence of Compound 2A. The values of α and β could be determined from the variation of the slopes and intercepts of the series of double reciprocal plots of 1/v versus 1/[S] for each concentration of Compound 2A. […] The two values determined for KI were from the two different plots.
The two values for KI were determined by two different methods for determining this parameter from the kinetic data: 1 represented a value determined from the slope of the 1/A intercept vs 1/[I] plot; 2 represented a value determined from the y intercept of the 1/A slope vs 1/[I] plot. […] Only the values of the parameters varied for the compounds.

T1 sequence (Q93008 whole entry): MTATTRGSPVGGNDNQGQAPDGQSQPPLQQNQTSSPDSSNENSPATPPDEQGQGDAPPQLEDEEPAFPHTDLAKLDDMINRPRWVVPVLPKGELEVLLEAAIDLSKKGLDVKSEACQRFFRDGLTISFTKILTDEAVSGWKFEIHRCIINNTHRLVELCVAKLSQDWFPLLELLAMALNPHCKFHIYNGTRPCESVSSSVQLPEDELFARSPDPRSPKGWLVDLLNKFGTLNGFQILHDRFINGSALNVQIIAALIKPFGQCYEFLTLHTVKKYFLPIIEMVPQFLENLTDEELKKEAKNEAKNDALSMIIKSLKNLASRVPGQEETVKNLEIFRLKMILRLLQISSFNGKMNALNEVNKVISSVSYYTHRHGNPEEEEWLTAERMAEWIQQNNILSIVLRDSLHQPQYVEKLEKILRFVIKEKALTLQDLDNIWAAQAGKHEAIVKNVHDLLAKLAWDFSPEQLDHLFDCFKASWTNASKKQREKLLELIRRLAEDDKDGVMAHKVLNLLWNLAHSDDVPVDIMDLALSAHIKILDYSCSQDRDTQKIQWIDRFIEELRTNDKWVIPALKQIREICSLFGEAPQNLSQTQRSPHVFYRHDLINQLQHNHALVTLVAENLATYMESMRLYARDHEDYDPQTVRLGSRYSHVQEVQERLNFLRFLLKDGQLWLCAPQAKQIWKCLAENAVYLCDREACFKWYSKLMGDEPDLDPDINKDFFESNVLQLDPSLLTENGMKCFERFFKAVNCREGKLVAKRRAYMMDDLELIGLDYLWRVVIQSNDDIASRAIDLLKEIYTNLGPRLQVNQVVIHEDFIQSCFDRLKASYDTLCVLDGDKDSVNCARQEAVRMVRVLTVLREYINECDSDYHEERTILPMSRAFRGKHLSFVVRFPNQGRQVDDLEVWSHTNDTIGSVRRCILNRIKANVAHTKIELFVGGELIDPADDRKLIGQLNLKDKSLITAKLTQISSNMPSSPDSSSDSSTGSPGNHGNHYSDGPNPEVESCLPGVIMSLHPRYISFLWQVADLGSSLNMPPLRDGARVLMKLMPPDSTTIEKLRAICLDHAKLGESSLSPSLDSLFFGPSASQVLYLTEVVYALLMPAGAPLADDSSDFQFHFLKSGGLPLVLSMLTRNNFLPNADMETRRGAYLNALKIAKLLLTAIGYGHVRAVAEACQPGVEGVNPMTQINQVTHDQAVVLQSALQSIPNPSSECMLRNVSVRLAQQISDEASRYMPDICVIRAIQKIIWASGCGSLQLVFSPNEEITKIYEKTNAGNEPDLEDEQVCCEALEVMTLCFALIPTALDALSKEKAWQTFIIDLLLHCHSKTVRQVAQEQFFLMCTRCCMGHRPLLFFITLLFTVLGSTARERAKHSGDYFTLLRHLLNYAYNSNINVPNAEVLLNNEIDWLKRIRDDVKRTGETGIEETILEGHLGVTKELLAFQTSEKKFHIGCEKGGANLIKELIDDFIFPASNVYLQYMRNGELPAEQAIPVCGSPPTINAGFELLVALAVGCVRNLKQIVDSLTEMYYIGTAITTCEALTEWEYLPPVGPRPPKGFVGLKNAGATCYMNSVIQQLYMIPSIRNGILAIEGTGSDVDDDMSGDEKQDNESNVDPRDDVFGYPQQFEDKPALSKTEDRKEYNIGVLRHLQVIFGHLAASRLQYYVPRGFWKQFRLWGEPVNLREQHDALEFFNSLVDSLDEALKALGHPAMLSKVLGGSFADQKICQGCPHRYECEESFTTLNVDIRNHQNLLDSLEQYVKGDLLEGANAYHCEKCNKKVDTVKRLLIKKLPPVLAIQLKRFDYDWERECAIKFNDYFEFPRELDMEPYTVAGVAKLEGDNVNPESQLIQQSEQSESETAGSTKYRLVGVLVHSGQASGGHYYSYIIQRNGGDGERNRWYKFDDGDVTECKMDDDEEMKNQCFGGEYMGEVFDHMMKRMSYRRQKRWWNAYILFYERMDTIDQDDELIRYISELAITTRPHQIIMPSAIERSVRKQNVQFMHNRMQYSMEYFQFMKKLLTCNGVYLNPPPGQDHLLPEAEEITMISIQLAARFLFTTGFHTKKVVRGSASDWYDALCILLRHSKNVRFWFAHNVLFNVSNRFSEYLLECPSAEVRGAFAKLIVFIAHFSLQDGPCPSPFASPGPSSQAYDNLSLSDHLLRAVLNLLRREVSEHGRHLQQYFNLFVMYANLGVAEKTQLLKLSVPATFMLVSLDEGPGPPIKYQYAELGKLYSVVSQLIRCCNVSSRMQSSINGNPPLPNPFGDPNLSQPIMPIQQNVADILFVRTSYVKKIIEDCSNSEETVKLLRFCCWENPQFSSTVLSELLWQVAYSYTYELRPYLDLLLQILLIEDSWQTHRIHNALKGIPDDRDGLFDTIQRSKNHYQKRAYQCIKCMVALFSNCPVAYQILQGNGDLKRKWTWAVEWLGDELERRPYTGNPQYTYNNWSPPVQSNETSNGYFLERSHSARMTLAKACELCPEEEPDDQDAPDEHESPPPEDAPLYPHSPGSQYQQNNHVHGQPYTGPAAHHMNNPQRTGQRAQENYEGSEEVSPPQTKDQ

Compound	KS	VMAX RFU/min	α	β
CN1CCOc2ccc(c(F)c2)C(=O)NCc2ccc(F)c(c2)C(=O)N[C@@H](CC(C)(C)C)C(=O)Nc2ccc(cc2)CCN(C)C(=O)CC(C)(C)CC1=O [Compound 11A]	0.91 µM	408 RFU/min	2	0.88

Same assay, conditions: from the slope of the 1/Δ intercept vs 1/[I] plot; read-out: KI, nM (1)

Compound	Ki
CN1CCOc2ccc(c(F)c2)C(=O)NCc2ccc(F)c(c2)C(=O)N[C@@H](CC(C)(C)C)C(=O)Nc2ccc(cc2)CCN(C)C(=O)CC(C)(C)CC1=O [Compound 11A]	7 nM

Same assay, conditions: from the y intercept of the 1/Δ slope vs 1/[I] plot; read-out: KI, nM (2)

Compound	Ki
CN1CCOc2ccc(c(F)c2)C(=O)NCc2ccc(F)c(c2)C(=O)N[C@@H](CC(C)(C)C)C(=O)Nc2ccc(cc2)CCN(C)C(=O)CC(C)(C)CC1=O [Compound 11A]	69 nM

The molecules below were run against T1, USP9X (assay: USP9X enzyme activity assay, ubiquitin-rhodamine110 substrate). Details: Table 8.
Protocol: The inhibition property of compound Compound 1A was evaluated in assays measuring the ability of USP9X to catalyze the hydrolysis of the amide bond between the C terminal carboxylate of ubiquitin and rhodamine110 of the fluorogenic substrate ubiquitin-rhodamine 110. To the wells of a 96 well reaction plate was added 12.5 μL USP9X solution (1.3 nM) in assay buffer (100 mM NaCl, 1 mM DTT, 0.1% bovine serum albumin, 0.05% Tween 20, 50 mM Tris, pH 7.5). 12.5 μL of Compound 1A in assay buffer (4×final concentration) was added to the wells containing the USP9X solution, and the solution was gently mixed by pipetting up and down several times. The plate was sealed and incubated at room temperature for 20 minutes.
Then 25 μL of the 1 μM substrate (ubiquitin-rhodaminel10) solution was added in assay buffer. The final substrate concentration was 0.5 μM. […] The slope for the rate of change of the fluorescence was determined and plotted vs the concentration of Compound 1A.
USP9X enzyme assays were set up in a 96 well plate to assess the abilities of Compound 3A and Compound 4A to inhibit the activity of USP9X, respectively. Ubiquitin-rhodamine110 was used as the substrate and ubiquitin aldehyde was included in the assay as a positive control.
Purified recombinant USPx9 (R&D Systems) in 50 mM Tris buffer pH 7.5, 1 mM DTT, 100 mM NaCl, 0.05% Tween 20 and 0/1% BSA is used at a concentration of 0.325 nM with 0.5 μM ubiquitin-rhodamine (R&D Systems).

Compound	USP9X IC50/UM
CNCCOc1ccc(C(=O)NCc2cccc(C(=O)N[C@@H](CC(C)(C)C)C(=O)Nc3ccc(CCC(=O)O)cc3)c2)cc1 [Compound 30]	>50 UM
CC(C)(C)C[C@H](N)C(=O)Nc1ccc(CCNC(=O)CC(C)(C)CC(=O)NCCOc2ccc(C(=O)NCc3cccc(C(=O)O)c3)cc2)cc1 [Compound 69]	>50 UM
CNC(=O)[C@H](CC(C)(C)C)NC(=O)c1cccc(CNC(=O)c2ccc(OCCNC(=O)CC(C)(C)CC(=O)NCCc3ccc(NC(C)=O)cc3)cc2)c1 [Compound 68]	>50 UM
CNCCOc1ccc(C(=O)NCc2cccc(C(=O)N[C@@H](CC3CCCCC3)C(=O)Nc3ccc(CCC(=O)O)cc3)c2)cc1 [Compound 37]	>50 UM
CNC(=O)c1cccc(CNC(=O)c2ccc(OCCNC(=O)CC(C)(C)CC(=O)NCCc3ccc(NC(=O)[C@H](CC(C)(C)C)NC(C)=O)cc3)cc2)c1 [Compound 71]	>50 UM
CC(=O)N[C@@H](CC(C)(C)C)C(=O)Nc1ccc(CCNC(=O)CC(C)(C)CC(=O)NCCOc2ccc(C(=O)NCc3cccc(C(=O)O)c3)cc2)cc1 [Compound 70]	>50 UM
CNCCOc1ccc(C(=O)NCc2cccc(C(=O)N3CCCC3C(=O)Nc3ccc(CCC(=O)O)cc3)c2)cc1 (stereo not shown) [Compound 36]	>50 UM
CN(C)CCOc1ccc(C(=O)NCc2cccc(C(=O)N[C@@H](CC(C)(C)C)C(=O)N(C)Cc3ccccc3)c2)cc1 [Compound 26]	>50 UM
CC(=O)Nc1ccc(CCNC(=O)CC(C)(C)CC(=O)NCCOc2ccc(C(=O)NCc3cccc(C(=O)N[C@@H](CC(C)(C)C)C(=O)O)c3)cc2)cc1 [Compound 67]	>50 UM

Same assay, conditions: read-out: IC50 for the inhibition of USP9X activity; ubiquitin-rhodamine110 substrate

Compound	IC50
CN1CCOc2ccc(c(F)c2)C(=O)NCc2ccc(F)c(c2)C(=O)N[C@@H](CC(C)(C)C)C(=O)Nc2ccc(cc2)CCN(C)C(=O)CC(C)(C)CC1=O [Compound 11A]	48 nM

Same assay, conditions: read-out: USP9X IC50 nM; Table 2

Compound	IC50
CN1CCOc2ccc(c(F)c2)C(=O)NCc2ccc(F)c(c2)C(=O)N[C@@H](CC(C)(C)C)C(=O)Nc2ccc(cc2)CCN(C)C(=O)CC(C)(C)CC1=O [Compound 11A]	48 nM

Same assay, conditions: read-out: USP9X IC50/UM; Table 8

Compound	IC50
CC(=O)NCc1ccc(F)c(C(=O)N[C@@H](CC(C)(C)C)C(=O)Nc2ccc(CCC(=O)O)cc2)c1 [Compound 60]	13000 nM
CNC(=O)c1ccc(OCCNC(=O)CC(C)(C)CC(=O)NCCc2ccc(NC(=O)[C@H](CC(C)(C)C)NC(=O)c3cccc(CNC(C)=O)c3)cc2)cc1 [Compound 74]	12000 nM
CNCCOc1ccc(C(=O)NCc2cccc(C(=O)N[C@@H](CC(C)C)C(=O)Nc3ccc(CCC(=O)O)cc3)c2)cc1 [Compound 31]	6000 nM
CNCCOc1ccc(C(=O)NCc2cccc(C(=O)N3CCCC3C(=O)Nc3ccc(CCC(=O)O)cc3)c2)cc1 (stereo not shown) [Compound 35]	7000 nM
CNCCOc1ccc(C(=O)NCc2ccc(F)c(C(=O)N[C@@H](CC(C)(C)C)C(=O)Nc3ccc(CCC(=O)O)cc3)c2)cc1 [Compound 53]	360 nM
CNC(=O)CCc1ccc(NC(=O)[C@H](CC(C)(C)C)NC(=O)c2cccc(CNC(=O)c3ccc(OC)cc3)c2)cc1 [Compound 42]	1300 nM
CNCCOc1ccc(C(=O)NCc2cccc(C(=O)N[C@@H](CC(C)(C)C)C(=O)Nc3ccc(Cn4ccnc4)cc3)c2)cc1 [Compound 10]	91 nM
CN(C)CCc1ccc(NC(=O)[C@H](CC(C)(C)C)NC(=O)c2cccc(CNC(=O)c3ccccc3)c2)cc1 [Compound 47]	320 nM
CN(C)CCOc1ccc(C(=O)NCc2cccc(C(=O)N[C@@H](CC(C)(C)C)C(=O)Nc3ccc(CN4CCCC4)cc3)c2)cc1 [Compound 5]	55 nM
CC(=O)NCCc1ccc(NC(=O)[C@H](CC(C)(C)C)NC(=O)c2cccc(CNC(=O)c3ccc(OCCO)cc3)c2)cc1 [Compound 64]	650 nM
COc1ccc(C(=O)NCc2cccc(C(=O)N[C@@H](CC(C)(C)C)C(=O)Nc3ccc(CCC(=O)O)cc3)c2)cc1 [Compound 55]	4700 nM
CC(C)(C)C[C@H](NC(=O)c1cccc(CN)c1)C(=O)Nc1ccc(CCNC(=O)CC(C)(C)CC(=O)NCCOc2ccc(C(=O)O)cc2)cc1 [Compound 72]	29000 nM
CN(C)CCOc1ccc(C(=O)NCc2cccc(C(=O)N[C@@H](CC(C)(C)C)C(=O)NCCN3CCCC3)c2)cc1 [Compound 19]	8000 nM
CC(C)(C)C[C@H](NC(=O)c1cccc(CNC(=O)c2ccc(OCCO)cc2)c1)C(=O)Nc1ccccc1 [Compound 61]	5800 nM
CNCCOc1ccc(C(=O)NCc2cccc(C(=O)N[C@@H](CC(C)(C)C)C(=O)Nc3ccc(CCC(=O)O)cc3)c2)cc1 [Compound 3]	280 nM
CN(C)CCNC(=O)[C@H](CC(C)(C)C)NC(=O)c1cccc(CNC(=O)c2ccc(OCCN(C)C)cc2)c1 [Compound 15]	23000 nM

Compound	IC50
CNCCOc1ccc(C(=O)NCc2cccc(C(=O)N[C@@H](CC(C)(C)C)C(=O)Nc3ccc(CN4CCCC4)cc3)c2)cc1 [Compound 4]	54 nM
CN(C)CCOc1ccc(C(=O)NCc2cccc(C(=O)N[C@@H](CC(C)(C)C)C(=O)Nc3ccc(CCN4CCOCC4)cc3)c2)cc1 [Compound 14]	120 nM
CC(C)(C)C[C@H](NC(=O)c1cccc(CNC(=O)c2ccc(OCCO)cc2)c1)C(=O)Nc1ccc(CCN)cc1 [Compound 63]	220 nM
CNCCOc1ccc(C(=O)NCc2cccc(C(=O)N[C@@H](CC(C)(C)C)C(=O)Nc3ccc(CC(F)(F)F)cc3)c2)cc1 [Compound 12]	1300 nM
CN(C)CCOc1ccc(C(=O)NCc2cccc(C(=O)N[C@@H](CC(C)(C)C)C(=O)Nc3ccc(Cn4ccnc4)cc3)c2)cc1 [Compound 11]	80 nM
CC(=O)NCc1cccc(C(=O)N[C@@H](CC(C)(C)C)C(=O)Nc2ccc(CCN(C)C)cc2)c1 [Compound 50]	2300 nM
CN(C)CCOc1ccc(C(=O)NCc2cccc(C(=O)N[C@@H](CC(C)(C)C)C(=O)Nc3ccc(CCc4ccccn4)cc3)c2)cc1 [Compound 7]	590 nM
CN(C)CCOc1ccc(C(=O)NCc2cccc(C(=O)N[C@@H](CC(C)(C)C)C(=O)Nc3ccc(CCN(C)C)cc3)c2)cc1 [Compound 13]	44 nM
CNC(=O)CCc1ccc(NC(=O)[C@H](CC(C)(C)C)NC(=O)c2cccc(CNC(C)=O)c2)cc1 [Compound 48]	8900 nM
CC(C)(C)C[C@H](NC(=O)c1cccc(CNC(=O)c2ccccc2)c1)C(=O)Nc1ccc(CCC(=O)O)cc1 [Compound 57]	7000 nM
CNCCOc1ccc(C(=O)NCc2cccc(C(=O)N[C@@H](CC(C)(C)C)C(=O)Nc3ccc(CCc4ccccn4)cc3)c2)cc1 [Compound 6]	700 nM
COC(=O)c1cc(NC(=O)[C@H](CC(C)(C)C)NC(=O)c2cccc(CNC(=O)c3ccc(OCCN(C)C)cc3)c2)ccc1C [Compound 24]	66 nM
CN(C)CCCNC(=O)[C@H](CC(C)(C)C)NC(=O)c1cccc(CNC(=O)c2ccc(OCCN(C)C)cc2)c1 [Compound 16]	18000 nM
Cc1ccc(NC(=O)[C@H](CC(C)(C)C)NC(=O)c2cccc(CNC(=O)c3ccc(OCCO)cc3)c2)cc1 [Compound 62]	6900 nM
CNCCOc1ccc(C(=O)NCc2cccc(C(=O)N[C@@H](CC(C)(C)C)C(=O)Nc3cccc(Cn4cccn4)c3)c2)cc1 [Compound 8]	1100 nM

Same assay, conditions: ubiquitin-rhodamine110 substrate

Compound	effect on USP9X activity
CN1CCOc2ccc(cc2)C(=O)NCc2ccc(F)c(c2)C(=O)N[C@@H](CC(C)(C)C)C(=O)Nc2ccc(cc2)CCN(C)C(=O)CCC(C)(C)CCC1=O [Compound 1A, (S)-5^4-fluoro-14,18,18,22-tetramethyl-S-neopentyl-25-oxa-3,7,10,14,22-pentaaza-1,11(1,4),5(1,3)-tribenzenacyclopentacosaphane-2,6,9,15,21-pentaone]	partially inhibited

Source: patent US20240294467A1, “USP9X Inhibitors” (ProDeg, LLC, priority 2021, published 2024)
